From PubChem BioAssay (NCI)
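Each compound was tested at five concentrations against cells in 96-well plates for 48 hours. Definition used: TGI = concentration required for complete inhibition of growth.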

Tests used:
Test in all cases: DTP human tumour cell line panel, 48 h
SK-MEL-2 melanoma = system: SK-MEL-2 melanoma
SW-620 colon = system: SW-620 colon
MDA-MB-435 = system: MDA-MB-435
U251 CNS = system: U251 CNS
K-562 leukemia = system: K-562 leukemia
SF-268 CNS = system: SF-268 CNS
OVCAR-5 ovarian = system: OVCAR-5 ovarian
CCRF-CEM leukemia = system: CCRF-CEM leukemia
SK-MEL-28 melanoma = system: SK-MEL-28 melanoma
NCI-H23 lung = system: NCI-H23 lung
NCI/ADR-RES ovarian = system: NCI/ADR-RES ovarian
SF-539 CNS = system: SF-539 CNS
HOP-92 NSCLC = system: HOP-92 NSCLC
SNB-19 CNS = system: SNB-19 CNS
RXF 393 renal = system: RXF 393 renal
COLO 205 colon = system: COLO 205 colon
SF-295 CNS = system: SF-295 CNS
HT29 colon = system: HT29 colon
DU-145 prostate = system: DU-145 prostate
A498 renal = system: A498 renal
UO-31 renal = system: UO-31 renal
SK-MEL-5 melanoma = system: SK-MEL-5 melanoma
HS 578T breast = system: HS 578T breast
NCI-H522 lung = system: NCI-H522 lung
OVCAR-8 ovarian = system: OVCAR-8 ovarian
NCI-H226 lung = system: NCI-H226 lung
HCT-116 colon = system: HCT-116 colon
SNB-75 CNS = system: SNB-75 CNS
LOX IMVI melanoma = system: LOX IMVI melanoma
OVCAR-3 ovarian = system: OVCAR-3 ovarian
MALME-3M melanoma = system: MALME-3M melanoma
IGROV1 ovarian = system: IGROV1 ovarian
786-0 renal = system: 786-0 renal
EKVX NSCLC = system: EKVX NSCLC
HL-60(TB) leukemia = system: HL-60(TB) leukemia
BT-549 breast = system: BT-549 breast
A549 NSCLC = system: A549 NSCLC
MDA-MB-231 breast = system: MDA-MB-231 breast
UACC-62 melanoma = system: UACC-62 melanoma
NCI-H460 lung = system: NCI-H460 lung
T-47D breast = system: T-47D breast
HOP-62 NSCLC = system: HOP-62 NSCLC
MDA-N = system: MDA-N
CAKI-1 renal = system: CAKI-1 renal
MOLT-4 leukemia = system: MOLT-4 leukemia
PC-3 prostate = system: PC-3 prostate
HCT-15 colon = system: HCT-15 colon
UACC-257 melanoma = system: UACC-257 melanoma
TK-10 renal = system: TK-10 renal
MCF7 breast = system: MCF7 breast
KM12 colon = system: KM12 colon
HCC-2998 colon = system: HCC-2998 colon
OVCAR-4 ovarian = system: OVCAR-4 ovarian
SK-OV-3 ovarian = system: SK-OV-3 ovarian
SN12C renal = system: SN12C renal
ACHN renal = system: ACHN renal
M14 melanoma = system: M14 melanoma
RPMI-8226 leukemia = system: RPMI-8226 leukemia

`COc1ccc(C(F)(F)F)cc1NC(=O)O/N=C(/Cl)C(C)C` was tested, and the TGI (SK-MEL-2 melanoma) was 35.6 µM, the TGI (SW-620 colon) was > 21.4 µM and the TGI (MDA-MB-435) was 48.1 µM. For the same molecule, the TGI (U251 CNS) was > 58.2 µM, the TGI (K-562 leukemia) was 3.99 µM and the TGI (SF-268 CNS) was 53.7 µM. For the same molecule, the TGI (OVCAR-5 ovarian) was 39.1 µM, the TGI (CCRF-CEM leukemia) was 31.9 µM and the TGI (SK-MEL-28 melanoma) was 48.5 µM. It also gave a TGI (NCI-H23 lung) of 40.2 µM, a TGI (NCI/ADR-RES ovarian) of 56.5 µM and a TGI (SF-539 CNS) of 37 µM. The TGI (HOP-92 NSCLC) was 18.9 µM, the TGI (SNB-19 CNS) was 42.6 µM and the TGI (RXF 393 renal) was 36.8 µM. The TGI (COLO 205 colon) was 4.1 µM, the TGI (SF-295 CNS) was > 66.3 µM and the TGI (HT29 colon) was 53.3 µM. The TGI (DU-145 prostate) was 34.3 µM, the TGI (A498 renal) was 66.2 µM and the TGI (UO-31 renal) was 33.3 µM. For the same molecule, the TGI (SK-MEL-5 melanoma) was 25.5 µM, the TGI (HS 578T breast) was > 78.3 µM and the TGI (NCI-H522 lung) was 4.57 µM. For the same molecule, the TGI (OVCAR-8 ovarian) was 41.1 µM, the TGI (NCI-H226 lung) was 35.6 µM and the TGI (HCT-116 colon) was 35.4 µM. It also gave a TGI (SNB-75 CNS) of 44.4 µM, a TGI (LOX IMVI melanoma) of 13.2 µM and a TGI (OVCAR-3 ovarian) of 34.8 µM. For the same molecule, the TGI (MALME-3M melanoma) was 24.7 µM, the TGI (IGROV1 ovarian) was 36.2 µM and the TGI (786-0 renal) was 31.8 µM. For the same molecule, the TGI (EKVX NSCLC) was 33.6 µM, the TGI (HL-60(TB) leukemia) was > 21.8 µM and the TGI (BT-549 breast) was 41.3 µM. The TGI (A549 NSCLC) was 40 µM, the TGI (MDA-MB-231 breast) was 37.4 µM and the TGI (UACC-62 melanoma) was 36.7 µM. The TGI (NCI-H460 lung) was > 64.2 µM, the TGI (T-47D breast) was 45.5 µM and the TGI (HOP-62 NSCLC) was 46 µM. For the same molecule, the TGI (MDA-N) was 32.4 µM, the TGI (CAKI-1 renal) was 3.18 µM and the TGI (MOLT-4 leukemia) was 6.2 µM. For the same molecule, the TGI (PC-3 prostate) was 34.5 µM, the TGI (HCT-15 colon) was > 30.4 µM and the TGI (UACC-257 melanoma) was 42.5 µM. The TGI (TK-10 renal) was 28.4 µM, the TGI (MCF7 breast) was > 55.9 µM and the TGI (KM12 colon) was > 60.2 µM. For the same molecule, the TGI (HCC-2998 colon) was 39.3 µM, the TGI (OVCAR-4 ovarian) was 35.8 µM and the TGI (SK-OV-3 ovarian) was > 67.3 µM. For the same molecule, the TGI (SN12C renal) was 32.2 µM, the TGI (ACHN renal) was 26.7 µM and the TGI (M14 melanoma) was 36 µM. The TGI (RPMI-8226 leukemia) was 6.05 µM.

In the case of `CNNC1=NS(=O)(=O)c2cc(C(=O)OC)c(Cl)cc2S1`, the TGI (SK-MEL-2 melanoma) was > 10 µM, the TGI (SW-620 colon) was > 10 µM and the TGI (MDA-MB-435) was > 10 µM. The TGI (U251 CNS) was > 10 µM, the TGI (K-562 leukemia) was > 10 µM and the TGI (SF-268 CNS) was > 10 µM. The TGI (OVCAR-5 ovarian) was > 10 µM, the TGI (CCRF-CEM leukemia) was > 10 µM and the TGI (SK-MEL-28 melanoma) was > 10 µM. For the same molecule, the TGI (NCI-H23 lung) was > 10 µM, the TGI (NCI/ADR-RES ovarian) was > 10 µM and the TGI (SF-539 CNS) was > 10 µM. The TGI (SNB-19 CNS) was > 10 µM, the TGI (RXF 393 renal) was > 10 µM and the TGI (COLO 205 colon) was > 10 µM. The TGI (SF-295 CNS) was > 10 µM, the TGI (HT29 colon) was > 10 µM and the TGI (DU-145 prostate) was > 10 µM. For the same molecule, the TGI (A498 renal) was > 10 µM, the TGI (SK-MEL-5 melanoma) was > 10 µM and the TGI (HS 578T breast) was > 10 µM. For the same molecule, the TGI (NCI-H522 lung) was > 10 µM, the TGI (OVCAR-8 ovarian) was > 10 µM and the TGI (NCI-H226 lung) was > 10 µM. For the same molecule, the TGI (HCT-116 colon) was > 10 µM, the TGI (SNB-75 CNS) was > 10 µM and the TGI (LOX IMVI melanoma) was > 10 µM. The TGI (OVCAR-3 ovarian) was > 10 µM, the TGI (MALME-3M melanoma) was > 10 µM and the TGI (IGROV1 ovarian) was > 10 µM. For the same molecule, the TGI (786-0 renal) was > 10 µM, the TGI (EKVX NSCLC) was > 10 µM and the TGI (HL-60(TB) leukemia) was > 10 µM. For the same molecule, the TGI (BT-549 breast) was > 10 µM, the TGI (A549 NSCLC) was > 10 µM and the TGI (MDA-MB-231 breast) was > 10 µM. For the same molecule, the TGI (UACC-62 melanoma) was > 10 µM, the TGI (NCI-H460 lung) was > 10 µM and the TGI (T-47D breast) was > 10 µM. For the same molecule, the TGI (HOP-62 NSCLC) was > 10 µM, the TGI (MDA-N) was > 10 µM and the TGI (CAKI-1 renal) was > 10 µM. The TGI (MOLT-4 leukemia) was > 10 µM, the TGI (PC-3 prostate) was > 10 µM and the TGI (HCT-15 colon) was > 10 µM. For the same molecule, the TGI (UACC-257 melanoma) was > 10 µM, the TGI (TK-10 renal) was > 10 µM and the TGI (MCF7 breast) was > 10 µM. For the same molecule, the TGI (KM12 colon) was > 10 µM, the TGI (HCC-2998 colon) was > 10 µM and the TGI (OVCAR-4 ovarian) was > 10 µM. For the same molecule, the TGI (SK-OV-3 ovarian) was > 10 µM, the TGI (SN12C renal) was > 10 µM and the TGI (ACHN renal) was > 10 µM. For the same molecule, the TGI (M14 melanoma) was > 10 µM and the TGI (RPMI-8226 leukemia) was > 10 µM.
